The values that follow come from publication PMC7796187, “New Bioactive Peptides Identified from a Tilapia Byproduct Hydrolysate Exerting Effects on DPP-IV Activity and Intestinal Hormones Regulation after Canine Gastrointestinal Simulated Digestion” (Molecules, 2020).

The IC50 is the concentration at which inhibition is half-maximal.

Where a SMILES comes first, the peptide text is derived from it. Where no end group is shown, it is not given here.

For the first assay, the target named is T1, Caco-2 DPP-IV activity (Homo sapiens, UniProt P27487).
T1 construct: In situ method using confluent Caco-2 cells described by Caron et al. was slightly modified and used to study DPP-IV activity; host or cells: Caco-2 cells, live and confluent, 7 days after seeding
T1 sequence (P27487 whole entry): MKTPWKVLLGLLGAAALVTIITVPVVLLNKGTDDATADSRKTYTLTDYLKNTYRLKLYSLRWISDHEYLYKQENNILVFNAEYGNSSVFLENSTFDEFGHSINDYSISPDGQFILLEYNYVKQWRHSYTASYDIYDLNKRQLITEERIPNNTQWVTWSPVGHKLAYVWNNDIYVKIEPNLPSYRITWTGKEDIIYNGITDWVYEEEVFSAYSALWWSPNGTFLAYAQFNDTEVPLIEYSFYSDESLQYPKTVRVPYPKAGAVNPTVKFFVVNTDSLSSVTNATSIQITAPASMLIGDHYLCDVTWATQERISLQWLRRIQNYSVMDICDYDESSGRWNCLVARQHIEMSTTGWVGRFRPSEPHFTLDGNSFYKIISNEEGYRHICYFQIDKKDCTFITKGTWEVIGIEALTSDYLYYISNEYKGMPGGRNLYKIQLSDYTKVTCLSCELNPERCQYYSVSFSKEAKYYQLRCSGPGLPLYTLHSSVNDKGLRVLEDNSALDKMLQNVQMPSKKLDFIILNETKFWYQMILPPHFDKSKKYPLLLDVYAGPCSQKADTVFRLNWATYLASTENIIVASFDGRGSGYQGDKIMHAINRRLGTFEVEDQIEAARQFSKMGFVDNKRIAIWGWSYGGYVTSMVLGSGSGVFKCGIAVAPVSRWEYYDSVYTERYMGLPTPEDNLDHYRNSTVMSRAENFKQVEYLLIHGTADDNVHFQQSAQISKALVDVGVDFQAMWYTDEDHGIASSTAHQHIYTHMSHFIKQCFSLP
Description: In situ DPP-IV activity inhibition using live confluent Caco-2 cells (Gly-Pro-AMC substrate). Type of assay: cell-based. The following applies: synthetic peptides identified in basolateral side, read-out: In Situ IC50 (DPP-IV inhibitory activity). On the procedure: (§1) Cells were grown in flask of 75 cm^2 at 37 °C, 5% CO2 atmosphere in DMEM supplemented with 4.5 g L^−1 of glucose, 10% of fetal bovine serum, 100 U mL^−1 of penicillin, 100 µg mL^−1 of streptomycin and 2 mM of L-glutamine. Caco-2 and STC-1 cells were weekly and twice a week subcultured, respectively. All cells used in this study were between the 40 and the 50 passages for Caco-2 cells and between the 10 and 30 passages for STC-1 cells.
In situ method using confluent Caco-2 cells described by Caron et al. was slightly modified and used to study DPP-IV activity. A 1 mM (Gly-Pro-AMC) substrate solution, the digests and the synthetic peptides dilutions were prepared in phosphate saline buffer pH 7.4 (PBS). Briefly, after 7 days of growth, Caco-2 cells were trypsinized and seeded at a density of 8000 cells/well in 96-well optical black plates (Nunc, ThermoFisher Scientific, Rochester, NY, USA). After 7 days, culture media were removed from wells and the cells were washed with 100 µL of PBS buffer (pH 7.4). […] After 5 min of incubation at 37 °C, 50 µL of (Gly-Pro-AMC) substrate solution were added to each well. Fluorescence was recorded every 2 min for 1 h at 37 °C using a Xenius XC spectrofluorometer (Safas Monaco, Monaco). Excitation wavelength was set to […] while the emission wavelength was of 480 nm. The percentage of the DPP-IV activity inhibition was defined as the percentage of DPP-IV activity inhibited by a given concentration of digest or diprotin A (commercial DPP-IV peptide inhibitor) as positive control compared with control buffer response. […] IC50 was expressed in mg mL^−1 or in mM.
On to `CC(C)C[C@H](NC(=O)[C@@H]1CCCN1C(=O)[C@@H](N)CC(=O)O)C(=O)N[C@H](C(=O)O)C(C)C` [DPLV] (H-DPLV-OH), for which the IC50 is above 2500 µM. Still for that read-out and setting: next, `C[C@@H](O)[C@H](NC(=O)[C@H](CC(=O)O)NC(=O)[C@@H](N)CCC(=O)O)C(=O)N[C@@H](Cc1ccc(O)cc1)C(=O)O` [EDTY] (H-EDTY-OH; N-terminus and C-terminus assumed): above 2500 µM. As for `C[C@@H](O)[C@H](NC(=O)[C@H](Cc1ccc(O)cc1)NC(=O)[C@H](CC(=O)O)NC(=O)[C@@H](N)CCC(=O)O)C(=O)O` [EDYT] (H-EDYT-OH; N-terminus and C-terminus assumed), the IC50 is above 2500 µM. The same measure, in the same setting: the result for `CC(C)C[C@H](NC(=O)[C@H](CC(=O)O)NC(=O)[C@@H]1CCCN1)C(=O)N[C@H](C(=O)O)C(C)C` [PDLV] (H-PDLV-OH) reads above 2500 µM; that for CSSGGY [CSSGGY], 2160 µM. CSSGK [CSSGK]: the IC50 is above 2500 µM.

Regarding VAPEEHPT, the IC50 came to 2270 µM. As for VDAGAP [VDAGAP], the IC50 was above 2500 µM.

In another assay the test system is murine GLUTag cells.
Experiment: not given
Also on record: method as in earlier work. The settings on record: α-actinin-2 sequences; cited from earlier work.
With ASDKPYIL [α-actinin-2 derived peptide], the GLP-1 secretion stimulation result is “also active”. As to KPYIL, the GLP-1 secretion stimulation entry is on record as “able to stimulate the GLP-1 secretion in murine GLUTag cells”.

In a further assay the test system is STC-1 cells. The assay is described as follows: Active GLP-1 secretion in STC-1 cells, radioimmunoassay of supernatant. The class given is cell-based. The following applies: 1 mM, 2 h, versus buffer control. On the procedure:
as §1, with “The Caco-2 cell line was purchased from Sigma-Aldrich (Villefranche-sur-Saône, France) and the STC-1 cell line was a grateful gift received from Corinne Grangette (Univ. Lille, CNRS, Inserm, CHU Lille, Institut Pasteur de Lille, U1019-UMR 8204-CIIL, France). Cells” for “Cells”
When 80–90% confluence was reached, STC-1 cells were trypsinized and seeded at a density of 40,000 cells/well in 24-wells culture plates (ThermoFisher Scientific, Saint Aubin, France) allowing to reach 60–80% confluence. Cell culture medium was removed from each well and cells were washed with phosphate saline buffer (PBS, 10 mM, pH 7.4). 250 µL of digests (2 to 10 mg mL^−1) or synthetic peptides (1 mM) diluted in Hepes buffer (4.5 mM KCl, 1.2 mM CaCl2, 140 mM NaCl and 20 mM Hepes, pH 7.4) were then added. Hepes buffer was used as a negative control. […]
Turning to ELLK, the “active GLP-1 release stimulation by synthetic peptide” value is “did not lead to GLP-1 secretion”. On the same count and under the same terms, the result for LKPT reads “able to significantly stimulate active-GLP-1 release”.

Another assay has as its system EECs.
Experiment: not given
Also on record: method as in PMID 28460928, doi:10.1016/j.jff.2017.06.047. The following applies: hemorphins from bovine hemoglobin digestion; cited from earlier work.
Regarding “LLVVYPWT [hemorphin released during bovine hemoglobin digestion]”, the CCK secretion stimulation entry was “CCK and GLP-1 secretion stimulating peptides”. “LVVYPWT [hemorphin released during bovine hemoglobin digestion]”: the CCK secretion stimulation entry was “CCK and GLP-1 secretion stimulating peptides”. Regarding VVYPWT, the CCK secretion stimulation result was “CCK and GLP-1 secretion stimulating peptides”. For “VVYPWTQRF [hemorphin released during bovine hemoglobin digestion]”, the CCK secretion stimulation result is “CCK and GLP-1 secretion stimulating peptides”.

Another assay concerns DPP-IV. Description: In vitro (biochemical) DPP-IV inhibitory activity test. The following applies: synthetic peptides identified in basolateral side.
For the molecule `C[C@@H](O)[C@H](NC(=O)[C@H](CC(=O)O)NC(=O)[C@@H](N)CCC(=O)O)C(=O)N[C@@H](Cc1ccc(O)cc1)C(=O)O` [EDTY] (H-EDTY-OH; N-terminus and C-terminus assumed), the IC50 is above 2500 µM. On the same count and under the same terms, the result for `C[C@@H](O)[C@H](NC(=O)[C@H](Cc1ccc(O)cc1)NC(=O)[C@H](CC(=O)O)NC(=O)[C@@H](N)CCC(=O)O)C(=O)O` [EDYT] (H-EDYT-OH; N-terminus and C-terminus assumed) reads above 2500 µM; that for VADTMEVV, 603 µM.

Another assay relates to STC-1 cells.
Experiment: not given
The following applies: peptides from egg white SGID intestinal digest; cited from earlier work. Also on record: method as in PMID 32516710.
Take VLLPD: the CCK secretion stimulation entry was “able to stimulate CCK secretion in STC-1 cells”.

Consider “VLLPDEVSGL [peptide from egg white SGID intestinal digest]”, for which the CCK secretion stimulation entry is on record as “able to stimulate CCK secretion in STC-1 cells”.

Another assay relates to EECs.
Experiment: not given
The following applies: cited from earlier work.
For AAAA, the GLP-1 secretion stimulation entry is listed as “able to stimulate GLP-1 secretion”. Take GGGG: the GLP-1 secretion stimulation result was “able to stimulate GLP-1 secretion”.

Take “GPVRGPFPIIV [literature GLP-1 stimulating peptide]”: the GLP-1 secretion stimulation entry is on record as “able to stimulate GLP-1 secretion”. Consider GWGG, for which the GLP-1 secretion stimulation result was “able to stimulate GLP-1 secretion”. For LGG, the GLP-1 secretion stimulation entry is on record as “able to stimulate GLP-1 secretion”.

The assay is the same for the next values; noted with them: egg white protein digest peptides; cited from earlier work.
PFL: the GLP-1 secretion stimulation result was “able to stimulate GLP-1 secretion”. For “RVASMASEKM [peptide from egg white protein digest]”, the GLP-1 secretion stimulation entry is given as “GLP-1 secretagogue”.

The assay is the same for the next values; noted with them: hemorphins from bovine hemoglobin digestion; cited from earlier work.
As for “LLVVYPWT [hemorphin released during bovine hemoglobin digestion]”, the GLP-1 secretion stimulation result was “CCK and GLP-1 secretion stimulating peptides”. Turning to “LVVYPWT [hemorphin released during bovine hemoglobin digestion]”, the GLP-1 secretion stimulation result is “CCK and GLP-1 secretion stimulating peptides”. As for VVYPWT, the GLP-1 secretion stimulation entry was “CCK and GLP-1 secretion stimulating peptides”. “VVYPWTQRF [hemorphin released during bovine hemoglobin digestion]”: the GLP-1 secretion stimulation entry was “CCK and GLP-1 secretion stimulating peptides”.

Staying with this assay, now noted: sequences from bovine hemoglobin intestinal digest; cited from earlier work.
For the molecule ANVST, the GLP-1 secretion stimulation entry is “able to stimulate the secretion of GLP-1”. KAAVT: the GLP-1 secretion stimulation result was “able to stimulate the secretion of GLP-1”. With TKAVEH, the GLP-1 secretion stimulation result was “able to stimulate the secretion of GLP-1”. For the molecule YGAE, the GLP-1 secretion stimulation result is “able to stimulate the secretion of GLP-1”.
